{
  "source": "patent US20060089410A1",
  "about": "“Combination of chemotherapeutic drugs for increasing antitumor activity” (Titan Pharmaceuticals, Inc., priority 2002, published 2006)",
  "key": {"c-Myc oncogene [1]": {"test_system": "c-Myc oncogene", "assay": "c-Myc oncogene expression by RT-PCR, Calu-6 cells", "assay_type": "cell-based", "settings": "for c-Myc oncogene expression: 96 hour exposure, n = 2", "protocol": "(§1) T24 Bladder transitional carcinoma cells, Calu-6 anaplastic lung carcinoma cells, and SK-MES-1 squamous lung cell carcinoma cell cultures were purchased from the American Type Culture Collection (Manassas, Va.). All cell lines were cultured in RPMI-1640 with 10% fetal calf serum. For culture in microtiter dishes, cells were plated at a density of 10^4 cells/well and incubated at 37° C., 5% CO2 overnight.\n(§2) After overnight incubation, drugs were added to wells in quadruplicate and incubated for 6 to 96 hours in the presence or absence of the oxyalkylene containing compound. […] the media was removed, fresh media were added with cytotoxic drug, and the cultures were incubated for another 6 hours.\n(§3) Tumor cell culture mRNA was isolated by standard methods, and RT-PCR was conducted to determine levels of c-Myc oncogene expression. The c-Myc primer pair used for RT-PCR cycling was:\n(§4) The c-Myc primer pair was cycled by the following program: 95° C. for 3 min., then 30 cycles of (95° C. for 1 min., then 55° C. for 1 min., then 72° C. for 1 min.) followed by holding temperature at 72° C. for 7 min. before ramping temperature to 4° C. Samples were analyzed quantitatively by 1% agarose gel electrophoresis and gel densitometry."}, "c-Myc oncogene [2]": {"test_system": "c-Myc oncogene", "assay": "c-Myc oncogene expression by RT-PCR, T24 cells", "assay_type": "cell-based, human", "settings": "for c-Myc oncogene expression: 96 hour exposure", "protocol": "as §1, §2, §3, §4"}, "c-Myc oncogene [3]": {"test_system": "c-Myc oncogene", "assay": "c-Myc oncogene expression, SK-MES-1 cells", "assay_type": "cell-based", "settings": "SK-MES-1, 96 hours in culture", "protocol": "as §1, §2, §3, §4"}, "[4]": {"test_system": "T24 Bladder transitional carcinoma cells", "assay": "Crystal violet microtiter assay, Pivanex then cytotoxic drug, T24", "assay_type": "cell-based, human", "protocol": "as §1, §2\n(§5) The wells were then washed and medium without drug was added to each well. Microtiter plates were subsequently incubated for an additional 3 days before cell density was determined by a Crystal Violet Assay. Some cultures were alternatively fixed in methanol and stained with hematoxylin and eosin (H&E) stain for 5 minutes prior to microphotography.\n(§6) PIVANEX (pivaloyloxymethyl butyrate) was obtained from Titan Pharmaceuticals Inc. (South San Francisco, Calif.) and was admixed with 0.05% Intralipid™ (Fresenius Kabi, Clayton, N.C.) prior to addition to culture media. The cytotoxic drugs gemcitabine (Gemzar; Eli Lilly and Co., Indianapolis, Ind.), cisplatin (Platinol, Bristol-Myers Squibb Co., Princeton, N.J.), paclitaxel (Taxol; Bristol-Myers Squibb Co., Princeton, N.J.), and docetaxel (Taxotere, Aventis Pharmaceuticals Products, Inc., Bridgewater, N.J.) were studied with PIVANEX.\n(§7) Cells in microtiter wells were rinsed with PBS and fixed in two volumes of 100% cold methanol for 5 minutes. One volume of 0.5% crystal violet in 20% methanol was added and the attached cells stained for 10 minutes. The cells were then washed and crystal violet was eluted with 0.1 N sodium citrate buffer and read on an ELISA plate reader at 490 nm."}, "[5]": {"test_system": "Calu-6 anaplastic lung carcinoma cells", "assay": "Crystal violet microtiter assay, Pivanex then cytotoxic drug, Calu-6", "assay_type": "cell-based", "protocol": "as §1, §2, §5, §6, §7"}, "[6]": {"test_system": "H23 (NCI-H23) NSCLC cell line", "assay": "MTS growth inhibition assay, sequencing of Pivanex and docetaxel, H23", "assay_type": "cell-based, human", "settings": "after 24 hour exposure", "description": "Human Non-Small Cell Lung Carcinoma Cell Lines, H522 and NCI-H23, were evaluated for growth inhibitory activity of Pivanex, alone and in combination with the standard chemotherapeutic agent, docetaxel. Cells were treated for three days with Pivanex followed by 24 hours of exposure to docetaxel or the cells were treated for 24 hours with docetaxel followed by three days of exposure to Pivanex. The cell growth inhibition was judged at the end of the 4-day experiments by a standard staining technique using MTS tetrazolium vital stain. […]\nExponentially growing cells were harvested with trypsin (0.05%)/EDTA (0.02%) and re-suspended in fresh medium containing 10% FBS. […] Absorbance was documented on a Dynex HD microplate reader at a wavelength of 490 nm. IC50 values were determined by using the Prism® GraphPad software from 3 different tests, each of which involved 4 replicates for each dose determination. The data are presented as percent growth inhibition, where 0% represents the mean value in wells to which only vehicle (0.1% DMSO) was added and was calculated as follows: % Growth Inhibition=(1−(ODtest/ODvehicle))×100 where ODtest is the optical density of the tested sample, OD vehicle is the optical density of the vehicle in which each respected drug is dissolved."}, "tumor cells": {"test_system": "tumor cells", "assay": "Growth inhibitory and cytotoxic effects on tumor cells in tissue culture", "assay_type": "cell-based", "settings": "tumor cell line dependent", "text": "Testing of a pivaloyloxymethyl butyrate dose and schedule interactions with chemotherapy in tissue culture was undertaken to facilitate clinical planning.\n(§8) The observed morphologic changes consistent with a more differentiated phenotype prompted investigation of oncogene expression following exposure to pivaloyloxymethyl butyrate."}, "c-myc": {"test_system": "c-myc", "assay": "Oncogene expression after exposure of tumor cells", "assay_type": "cell-based", "settings": "72-hour exposure, 10-50 μM", "text": "as §8"}, "p53": {"test_system": "p53", "assay": "Oncogene expression after exposure of tumor cells", "assay_type": "cell-based", "settings": "72-hour exposure, 10-50 μM", "text": "as §8"}, "ras": {"test_system": "ras", "assay": "Oncogene expression after exposure of tumor cells", "assay_type": "cell-based", "settings": "72-hour exposure, 10-50 μM", "text": "as §8"}, "A549 lung cancer cells": {"test_system": "A549 lung cancer cells", "assay": "Pretreatment followed by various chemotherapeutic agents, A549", "assay_type": "cell-based, human", "protocol": "Human T24 bladder and A549 lung cancer cells were exposed to increasing concentrations of pivaloyloxymethyl butyrate for 6 or 72 hours followed by exposure to various chemotherapeutic agents. […] At higher dosages the increase in cytotoxicity following the sequential regimen would show after a shorter induction period with pivaloyloxymethyl butyrate as discussed above."}, "[7]": {"assay": "Preliminary Phase I/II clinical trials, lung cancer and refractory malignancies metastatic to the liver", "assay_type": "in vivo, human"}, "[8]": {"assay": "Biological evaluations (myeloablation, myelosuppression)", "text": "Pivaloyloxymethyl butyrate functions as a differentiating agent with activity against multiple tumor cell types in culture."}, "[9]": {"settings": "Pivanex 50 μM, gemcitabine 0 nM"}, "[10]": {"settings": "Pivanex 100 μM, gemcitabine 0 nM"}},
  "data": [
    {"smiles": "CCCC(=O)OCOC(=O)C(C)(C)C", "note": "[Pivanex, pivaloyloxymethyl butyrate]", "values": [
      {"measurement": "concentrations (as low as) that decreased the expression of c-Myc oncogene", "setting": "c-Myc oncogene [1]; Calu-6, 96 hours in culture", "value": "10 to 50", "unit": "µM"},
      {"measurement": "c-Myc oncogene expression", "setting": "c-Myc oncogene [1]; Pivanex 10 μM", "value": 893, "unit": "PCR units"},
      {"measurement": "c-Myc oncogene expression", "setting": "c-Myc oncogene [1]; Pivanex 25 μM", "value": 743, "unit": "PCR units"},
      {"measurement": "c-Myc oncogene expression", "setting": "c-Myc oncogene [1]; Pivanex 50 μM", "value": 711, "unit": "PCR units"},
      {"measurement": "c-Myc oncogene expression", "setting": "c-Myc oncogene [1]; Pivanex 100 μM", "value": 647, "unit": "PCR units"},
      {"measurement": "c-Myc oncogene expression", "setting": "c-Myc oncogene [1]; Pivanex 200 μM", "value": 460, "unit": "PCR units"},
      {"measurement": "c-Myc oncogene expression", "setting": "c-Myc oncogene [2]; Pivanex 10 μM", "value": 760, "unit": "PCR units"},
      {"measurement": "c-Myc oncogene expression", "setting": "c-Myc oncogene [2]; Pivanex 25 μM", "value": 972, "unit": "PCR units"},
      {"measurement": "c-Myc oncogene expression", "setting": "c-Myc oncogene [2]; Pivanex 50 μM", "value": 966, "unit": "PCR units"},
      {"measurement": "c-Myc oncogene expression", "setting": "c-Myc oncogene [2]; Pivanex 100 μM", "value": 640, "unit": "PCR units"},
      {"measurement": "c-Myc oncogene expression", "setting": "c-Myc oncogene [2]; Pivanex 200 μM", "value": 560, "unit": "PCR units"},
      {"measurement": "concentrations (as low as) that decreased the expression of c-Myc oncogene", "setting": "c-Myc oncogene [2]; T-24, 96 hours in culture", "value": "10 to 50", "unit": "µM"},
      {"measurement": "concentrations (as low as) that decreased the expression of c-Myc oncogene", "setting": "c-Myc oncogene [3]", "value": "10 to 50", "unit": "µM"},
      {"measurement": "T24 cancer cell viability (A^490 Absorbance)", "setting": "[4]; Pivanex 10 μM, cisplatin 0 μM", "value": 0.48},
      {"measurement": "T24 cancer cell viability (A^490 Absorbance)", "setting": "[4]; Pivanex 25 μM, gemcitabine 0 nM", "value": 0.479},
      {"measurement": "T24 cancer cell viability (A^490 Absorbance)", "setting": "[4]; Pivanex 50 μM, cisplatin 0 μM", "value": 0.422},
      {"measurement": "T24 cancer cell viability (A^490 Absorbance)", "setting": "[4]; [9]", "value": 0.455},
      {"measurement": "T24 cancer cell viability (A^490 Absorbance)", "setting": "[4]; [10]", "value": 0.414},
      {"measurement": "T24 cancer cell viability (A^490 Absorbance)", "setting": "[4]; Pivanex 200 μM, gemcitabine 0 nM", "value": 0.41},
      {"measurement": "Calu-6 cancer cell viability (A^490 Absorbance)", "setting": "[5]; Pivanex 10 μM, cisplatin 0 μM", "value": 0.617},
      {"measurement": "Calu-6 cancer cell viability (A^490 Absorbance)", "setting": "[5]; Pivanex 10 μM, docetaxel 0 nM", "value": 0.732},
      {"measurement": "Calu-6 cancer cell viability (A^490 Absorbance)", "setting": "[5]; Pivanex 10 μM, gemcitabine 0 nM", "value": 0.617},
      {"measurement": "Calu-6 cancer cell viability (A^490 Absorbance)", "setting": "[5]; Pivanex 50 μM, cisplatin 0 μM", "value": 0.577},
      {"measurement": "Calu-6 cancer cell viability (A^490 Absorbance)", "setting": "[5]; Pivanex 50 μM, docetaxel 0 nM", "value": 0.553},
      {"measurement": "Calu-6 cancer cell viability (A^490 Absorbance)", "setting": "[5]; [9]", "value": 0.577},
      {"measurement": "Calu-6 cancer cell viability (A^490 Absorbance)", "setting": "[5]; Pivanex 100 μM, cisplatin 0 μM", "value": 0.284},
      {"measurement": "Calu-6 cancer cell viability (A^490 Absorbance)", "setting": "[5]; [10]", "value": 0.284},
      {"measurement": "cell growth with agent alone", "setting": "[6]", "value": "steep increase in H23 cell growth"},
      {"measurement": "concentrations at which cytotoxicity was observed", "setting": "tumor cells; 6-hour exposure", "value": "greater than 125 μM"},
      {"measurement": "concentrations at which cytotoxicity was observed", "setting": "tumor cells; 72 hours of treatment", "value": "greater than 25 μM"},
      {"measurement": "c-myc expression", "setting": "c-myc", "value": "significant suppression"},
      {"measurement": "p53 expression", "setting": "p53", "value": "significant suppression"},
      {"measurement": "ras expression", "setting": "ras", "value": "significant suppression"},
      {"measurement": "enhancement of cytotoxicity of chemotherapeutic agents", "setting": "A549 lung cancer cells; A549, 6-hour pretreatment, lower doses", "value": "did not enhance cytotoxicity"},
      {"measurement": "enhancement of cytotoxicity of chemotherapeutic agents", "setting": "A549 lung cancer cells; A549, 72-hour pretreatment", "value": "did enhance drug-induced cytotoxicity"},
      {"measurement": "tolerability", "setting": "[7]", "value": "well tolerated"},
      {"measurement": "myeloablation / myelosuppression", "setting": "[8]", "value": "non-myeloablative and non-myelosuppressive"}
    ]}
  ]
}
